Assay [1] addresses T1, Aromatase (Homo sapiens, UniProt P11511).
T1 sequence (P11511 whole entry): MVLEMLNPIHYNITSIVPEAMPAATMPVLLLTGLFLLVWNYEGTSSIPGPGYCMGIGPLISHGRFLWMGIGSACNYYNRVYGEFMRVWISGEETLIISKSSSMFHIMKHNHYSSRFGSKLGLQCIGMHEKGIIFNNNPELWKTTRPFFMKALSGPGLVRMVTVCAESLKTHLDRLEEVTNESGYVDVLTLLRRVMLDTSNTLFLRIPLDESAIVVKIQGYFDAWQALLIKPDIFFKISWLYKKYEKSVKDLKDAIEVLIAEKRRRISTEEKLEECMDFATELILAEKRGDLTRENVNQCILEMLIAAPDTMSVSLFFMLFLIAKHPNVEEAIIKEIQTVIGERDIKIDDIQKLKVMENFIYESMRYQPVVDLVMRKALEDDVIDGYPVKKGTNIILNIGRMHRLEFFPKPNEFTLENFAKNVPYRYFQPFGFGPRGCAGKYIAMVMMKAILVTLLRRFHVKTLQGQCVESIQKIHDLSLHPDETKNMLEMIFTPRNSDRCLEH
The assay is described as follows: Inhibition of aromatase (unknown origin).

Another assay concerns A549. The assay is described as follows: Cytotoxicity against human A549 cells by MTT assay. The class given is functional, cell-based. Background: Tetrazolium dyes change colour on reduction, which living cells bring about.
A short description of assay [2]: Cytotoxicity against human HuCCa1 cells by MTT assay. The assay is classed as functional, cell-based, HuCC-A1.
Assay [3] has as its target T1, Aromatase. The assay is described as follows: Inhibition of human recombinant aromatase expressed in baculovirus infected insect cells using O-benzylfluorescein benzyl ester as substrate after 30 mins.
Assay [4] is described as follows: Cytotoxicity against human MOLT3 cells by XTT assay. The class given is functional, cell-based. To be noted: MOLT-3.
Another assay concerns HepG2. The assay is described as follows: Cytotoxicity against human HepG2 cells by MTT assay. The assay is classed as functional, cell-based.
[5] abbreviates: Homo sapiens, A549, read-out: IC50.
[6] abbreviates: Homo sapiens, HuCC-A1, read-out: IC50.
Setting [7] is: Homo sapiens, HepG2, read-out: IC50.

Molecules are shown by their SMILES.

Take `COc1cc(O)c([C@@H]2C[C@@H](c3ccccc3)Oc3c(C=O)c(O)cc(O)c32)c(O)c1C(=O)/C=C/c1ccccc1`: on Aromatase [1], the IC50 (commonly the point on the concentration scale where inhibition reaches its midpoint) worked out at 3.3 µM.
On the same count and under the same terms, next, `COc1cc(O)c([C@H]2C[C@@H](c3ccccc3)Oc3c(C=O)c(O)cc(O)c32)c(O)c1C(=O)/C=C/c1ccccc1`: 1.8 µM.
Regarding `COc1cc(O)c(C=O)c2c1[C@H](O)C[C@@H](c1ccccc1)O2`, the IC50 in the assay on A549 (setting [5]) was 147 µM; in assay [2] (setting [6]) it was 130 µM; at Aromatase [3] it was 0.04 µM; in assay [4] it was 24.3 µM; with HepG2 (hepg2), “Not Active”.
As to `COc1c(C)c(OC)c2c(c1C=O)O[C@H](c1ccccc1)C[C@H]2O`, the IC50 in the assay with A549 (setting [5]) was 137 µM; in assay [2] (hucc-a1), “Not Active”; at Aromatase [3], 1.01 µM; in assay [4], 57.4 µM; in the assay with HepG2 (setting [7]) it was 99.6 µM.
Consider `COc1c(C)c(OC)c2c(c1C)O[C@H](c1ccccc1)C[C@H]2O`, for which the IC50 entry is “Not Active” in the assay on A549 (a549); “Not Active” in assay [2] (hucc-a1); 10.7 µM on Aromatase [3]; 63.5 µM in assay [4]; 135 µM in the assay on HepG2 (setting [7]).
In the case of `COc1cc(O)c(C=O)c2c1[C@H](OC)C[C@@H](c1ccccc1)O2`, the IC50 result is “Not Active” with A549 (a549); 140 µM in assay [2] (setting [6]); 0.09 µM on Aromatase [3]; 41.3 µM in assay [4]; “Not Active” in the assay with HepG2 (hepg2).
For the molecule `COc1c(C)c(O)c(C=O)c2c1[C@H](O)C[C@@H](c1ccccc1)O2`, the IC50 result in the assay on A549 (a549) is “Not Active”; in assay [2] (setting [6]), 143 µM; at Aromatase [3] it was 0.08 µM; in assay [4], 29.8 µM; with HepG2 (setting [7]), 143 µM.
For `COc1c(C)c(O)c(C=O)c2c1[C@H](OC)C[C@@H](c1ccccc1)O2`, the IC50 was 104 µM with A549 (setting [5]); 125 µM in assay [2] (setting [6]); 0.15 µM on Aromatase [3]; 28.5 µM in assay [4]; 145 µM in the assay on HepG2 (setting [7]).
With `COc1cc(O)c2c(c1C)O[C@H](c1ccccc1)CC2=O`, the IC50 on Aromatase [3] was 0.6 µM.
With `COc1c(C)c(O)c2c(c1C)O[C@H](c1ccccc1)CC2=O`, the IC50 result with A549 (a549) is “Not Active”; in assay [2] (hucc-a1) it was “Not Active”; on Aromatase [3] it was more than 12.5 µM; in assay [4] it was 72 µM; with HepG2 (hepg2) it was “Not Active”.
As for `COc1cccc2c1C(=O)c1c(O)c3c(c(O)c1C2=O)C[C@@](O)(C(=O)CO)C[C@@H]3O[C@H]1C[C@H](N)[C@H](O)[C@H](C)O1` [DOXORUBICIN], the IC50 in assay [2] (setting [6]) was 1.1 µM.
Regarding `COc1cc([C@@H]2c3cc4c(cc3[C@@H](O[C@@H]3O[C@@H]5CO[C@@H](C)O[C@H]5[C@H](O)[C@H]3O)[C@H]3COC(=O)[C@H]23)OCO4)cc(OC)c1O` [ETOPOSIDE], the results for the IC50 (in assay [4]; with HepG2 (setting [7])) were 0.03 µM and 22.1 µM, respectively.
At Aromatase [1], `O=C1C[C@@H](c2ccccc2)Oc2cc(O)cc(O)c21` [PINOCEMBRIN] gave an IC50 of 0.9 µM.

These data come from ChEMBL document CHEMBL3132766, “Flavans from Desmos cochinchinensis as potent aromatase inhibitors” (Medchemcomm, 2013).
